Reference: a melting point compilation (Tetko et al.; mined from patent text by program, amines drawn as free bases though some values may be those of a salt)

Structure (SMILES) | melting point
O=C(Nc1ccc(-n2nc(C(F)(F)F)cc2C(F)(F)F)cc1)c1ccc(Cl)cc1F | 156 to 158 °C
Cc1onc(-c2ccccc2)c1-c1ccccc1 | 95.5 to 96.2 °C
CC(C)(C)OC(=O)N1CC(O)C(N2CCC(Cc3ccc(Cl)cc3)CC2)C1 (configuration not stated) | 99 to 102 °C
CSC(C(N)=O)c1ccccc1N (configuration not stated) | 98.5 to 99.5 °C
CSc1sc(-c2ccncc2)c2c1C(=O)CCC2 | 115 to 116 °C
C=C1COc2ccc(C(C)=O)cc2C(S(=O)(=O)c2ccccc2)C1 (configuration not stated) | 124 to 125 °C
C=CC1(C(=O)c2ccc(Cl)cc2)C=CC=CC1Cl (configuration not stated) | 120 to 122 °C
OCC(F)(F)c1ccccn1 | 58 to 60 °C
COc1ccc(N2CCC(C(N)=O)CC2)cc1 | 178 to 181 °C
Cc1cc(C(N)=O)ncc1C(c1c(F)ccc(F)c1F)S(=O)(=O)CCCO (configuration not stated) | 148 to 150 °C
CCCC(=O)c1cnc2c(C)cccc2c1Nc1ccccc1OC | 135 to 137 °C
CN(Cc1ccc(-c2ccc(N3C[C@H](Cn4ccnn4)OC3=O)cc2F)cn1)CC(O)CO (some centres not stated) | 123 °C
CCN(CC)CCNc1nc2cccnc2n(-c2ccc(OC)cc2)c1=O | 167 to 168 °C
Cc1cccc2c(Cl)c(CCCl)nnc12 | 102 to 104 °C
CC1(C)C(=O)Nc2cc3oc(-c4ccncc4)nc3cc21 | 336 to 338 °C
O=C(O)[C@@H]1CCc2ccc(O)cc2O1 | 77 to 79 °C
CC(=O)OC1CSC(Oc2cncc(-c3ccncc3Cl)c2)C(OC(C)=O)C1OC(C)=O (configuration not stated) | 175 °C
CC(=O)NCC1=C(N2CCCC2=O)c2cc([N+](=O)[O-])ccc2OC1(C)C | 205 °C
CC(C)(C)c1cc(NC(=O)Nc2ccccc2C(=O)NC2CCN(C(c3ccccc3)c3ccccc3)CC2)cc(C(C)(C)C)c1O | 218 to 225 °C
CCCCn1c(=O)n(CC=C(C)C)c(=O)c2c1ncn2S(=O)(=O)c1ccc(OC)c(OC)c1 | 92 to 95 °C
O=C(NCc1ccc(Cl)cc1)c1cn(C2CC2)c2oc(CCl)cc2c1=O | 174 to 176 °C
Cc1nc2c(s1)C(=O)C(C=O)CC2 (configuration not stated) | 107 to 108 °C
CCCc1nnc(-c2ccc(N(C)C)cc2)n1-c1ccc(OC)cc1 | 160 °C

Structure (SMILES) | melting point
COC(=O)c1ccc(F)c(S(N)(=O)=O)c1 | 127 to 129 °C
CCCCc1nc2c(c(C)c(C)n3nnnc23)n1CC(C)(C)N | 144 to 147 °C
CCOCC1COc2cc3c(O)c(C#N)cnc3cc2O1 (configuration not stated) | 248 to 254 °C
O=C(N[C@H]1CC[C@@H](O)C1)OCc1ccccc1 (relative stereo) | 62 to 63 °C
O=c1[nH]c(=S)[nH]cc1Oc1cccnc1 | 227 to 230 °C
O=C1C(Cl)=C(c2ccccc2)C1(F)F | 77.5 to 78 °C
N[C@@H](Cc1ccc(C(F)(F)F)cc1)[C@H](O)c1ccccc1 (racemic) | 64 to 65 °C
CSC1CCC2C3CCC4=CC(=O)C=CC4(C)C3(F)C(OC(C)=O)CC12C (configuration not stated) | 169 to 170 °C
COCc1nc2c(N)nc3ccccc3c2n1CC(C)(C)O | 174 to 175 °C
CC(=O)Nc1nc(CCc2ccc(CON)cc2)cs1 | 130 °C
CCOC(=O)C1CC(=O)c2c(OC)ccc(OC)c2C1 (configuration not stated) | 96 to 98 °C
C=CCNc1nc(CO)cs1 | 74 to 75 °C
C[C@]1(O)c2ccccc2CC[C@H]1O (relative stereo) | 75 °C
C#Cc1ccc(C=O)cc1 | 122 to 123 °C
CCONC(=O)c1cc(-c2ncc(C(F)(F)F)cc2Cl)ccc1Cl | 162 to 163 °C
CC(=O)OC1CCC2C3CCC4CC(=O)CC(C)C4(C)C3CCC12C (configuration not stated) | 179 to 180 °C
CNC(=O)N1N=C(c2ccc([N+](=O)[O-])cc2)c2cc(Cl)c(Cl)cc2CC1C (configuration not stated) | 221 to 223 °C
O=C(NCCCN1CCCCC1)c1cccc(Nc2ncnc3[nH]cc(C(=O)c4ccccc4)c23)c1 | > 300 °C
Cc1ccc(C2CCC(=O)Nc3ccccc32)cc1 (configuration not stated) | 178 to 181 °C
CCOCn1cc(-c2ccnc(N)n2)c2c(OC)cc(Br)nc21 | > 210 °C
CCC(=O)OCC1OC(n2cnc3c(OC)nc(N)nc32)C(O)C1O (configuration not stated) | 124 °C
NC(=O)C(Cc1ccccc1N1CCCCC1)c1ccc(C(=O)O)cc1 (configuration not stated) | 175 to 177 °C
O=c1cc(-c2ccccc2)oc2cccc(F)c12 | 144 to 145 °C

Structure (SMILES) | melting point
CS(=O)(=O)c1ccnc(Oc2cc(C#N)cc(C#N)c2)n1 | 189 to 191 °C
CCCCCCCCc1ccc(CCC(N)(CO)CO)cc1 | 103 to 105 °C
O=C1NC(=O)c2ccccc2/C1=C/Nc1cccc(CN2CCCCCC2)c1 | 116 to 117 °C
Cc1noc(C)c1C(=O)Nc1ccc(-n2nccc2C)cc1 | 151 to 152 °C
CCCN1CC=C(c2c[nH]c3ccc(OC)cc23)CC1 | 164 °C
CCNC(=O)Nc1nc2cc(-c3cccnc3)cc(-c3nnc(C)o3)n2n1 | 318 to 321 °C
CCOC(=O)Cn1c(-c2ccc3c(c2)OCCO3)nc2ccccc21 | 113 to 114 °C
Cn1ccnc1-c1ccc(OCC(O)CNCCOc2ccc(O)c(C(N)=O)c2)cc1 (configuration not stated) | 108 to 112 °C
O=C(Nc1cccc(S(=O)(=O)Nc2ccccc2)c1)c1cnn2c(C(F)F)cc(-c3ccc(C(F)(F)F)cc3)nc12 | 228 °C
Cc1ccccc1C(Oc1cc(OCc2ccccc2)ccc1C#N)C(=O)O (racemic) | 128 to 130 °C
CC(C)(C)SC1CN(C(=O)OCc2ccccc2)CC1NS(=O)(=O)c1ccc(Oc2ccccc2)cc1 (configuration not stated) | 125 to 126 °C
CCO[C@@H](Cc1ccc(OCCc2nc(-c3ccc(-c4ccccc4)cc3)oc2C)c2ccccc12)C(=O)O | 140 to 145 °C
CCOC(=O)C1=C(C)NC(c2c(F)cc(F)cc2F)=NC1c1ccc(F)cc1Cl (configuration not stated) | 184 to 186 °C
CC1(O)CSC(=S)N1c1ccccn1 (configuration not stated) | 120 °C
Cc1cc(C2CC(C)(C)CC(C)(C)C2=O)ccc1F (configuration not stated) | 63 to 64 °C
CC(=O)c1cc2c(cc1C=O)C(C)(C)CCC2(C)C | 116 °C
C=CCc1cc2c(c(CC=C)c1O)N(CC=C)C(=O)CO2 | 71 to 73 °C
Cc1noc(NS(=O)(=O)c2cccc([N+](=O)[O-])c2)c1Br | 151 to 153 °C
O=C(c1ccccc1)c1ccc(OC(=O)C2CC2)cc1 | 81 to 81.5 °C
CC(C)N(CCN1C(=O)C(=O)c2cc(Cl)ccc21)C(C)C | 99 to 101 °C
Cn1c(C(CCN2CCC(O)(c3ccccc3)CC2)c2ccc(Cl)c(Cl)c2)cc2ccccc2c1=O (configuration not stated) | 100 to 102 °C

Now from value to molecule:

melting point | Structure (SMILES)
90 to 95 °C | COc1c(OCc2ccc(-c3ccccc3S(=O)(=O)Nc3onc(C)c3C)c(COCCF)c2)cc(C)nc1C
154 °C | CC(C)(C)Cc1ccc(C(=O)c2ccccc2C(=O)O)cc1
214 to 216 °C | CCc1cc(C(C)=O)c(O)cc1OCc1ccc(C(=O)O)c(O)c1
156 °C | CC(C)C(C(=O)O)N1C(=O)C2C3C=CC(CC3)C2C1=O (configuration not stated)
105 to 107 °C | COc1ccc2ccccc2c1-c1c(C)c2c(c(C)c1P(=O)(c1ccccc1)c1ccccc1)COC2
66 to 67 °C | CC(C)(C)OC(=O)N1CCC[C@H](O)[C@@H]1c1ccccc1
141 to 143 °C | O=Cc1cc(F)c(O)c(F)c1O
197 to 199 °C | CCOc1cccc(NC(=O)NS(=O)(=O)c2ccc(C)cc2)n1
38 to 39 °C | CCCCCCCCCC#CCCCCCCCCCCCO
53 to 54 °C | CC(=O)OCC1OC(OS(=O)(=S)c2ccccc2)C(OC(C)=O)C(OC(C)=O)C1OC(C)=O (configuration not stated)
44 to 45 °C | COC(=O)c1ccc(C(C)(C)CO)cc1
159 °C | O=C(Nc1ccccc1S(=O)(=O)N1CCCCC1)N[C@@H](Cc1ccc(Oc2nccc3ccncc23)cc1)C(=O)O
34 to 36 °C | O=NSC1(C2OCCCO2)CCCCC1
110 °C | O=c1[nH]c2c(O)cccc2n1CCN1CCN(c2cccc(C(F)(F)F)c2)CC1
78 to 82 °C | O=C(C(=O)c1cccc(Br)c1)c1ccccc1
180 °C | C=Cc1ccc2c(NCc3ccc(NC(=O)C4CCN(Cc5ccccc5)CC4)cc3)nc(N(C)C)nc2c1
148 to 149 °C | CC(C)(C)C(=O)Nc1c(F)cc(F)cc1C#Cc1ccc(SC2CCOCC2)cc1
118 to 119 °C | CC1(C)CC(n2ccc(-c3ccc(F)cc3)c2-c2ccncc2)CC(C)(C)N1

melting point | Structure (SMILES)
234 to 236 °C | COc1ccc2[nH]c(-c3n[nH]c4ccsc34)cc2n1
262 °C | CCc1ccccc1NC=C1C(=O)N(c2cccc(-c3nnn[nH]3)c2)N=C1C
209 to 210 °C | NC(=O)c1cc(F)c(N[C@H]2CC[C@H](N)CC2)cc1F
124 to 125 °C | O=C(CCc1ccccc1)N[C@H](Cc1ccc(C(F)(F)F)cc1)[C@@H](O)c1ccccc1F (racemic)
187 to 188 °C | CCOC(=O)C(=O)NNc1ccc([N+](=O)[O-])cc1
282 to 283 °C | CCC(C)(C)c1cc(-c2cccc(C=C3SC(N4CCCC4)=NC3=O)c2)ccc1O
194 to 195 °C | Cc1nc2ccc3c(c2s1)C(=CC#N)CC3
150 °C | CC(C)(C(=O)c1ccc(Cl)cc1)n1ncn(-c2ccc(N3CCN(Cc4ccccc4)CC3)cc2)c1=O
254 to 256 °C | Clc1nc(Cl)nc(N2CCc3ccccc32)n1
79 to 81 °C | CCn1nnc(-c2ccc(CN3CCC(C(O)(c4ccc5c(c4)OC(F)(F)O5)c4ccc5c(c4)OC(F)(F)O5)CC3)cc2)n1
184 to 186 °C | Cc1c(C(=O)O)cnn1-c1c(Cl)cc(Cl)cc1Cl
169 to 171 °C | O=S(=O)(c1ccc(-n2cccn2)cc1)N1CCC(CNCC(O)COc2ccc(O)cc2)CC1 (configuration not stated)
177 to 178 °C | Nc1ccc(N2C(=O)CCCC2c2ccc(Cl)c(Cl)c2)cc1 (configuration not stated)
107 to 110 °C | CCCCCN1C(=O)C2(COc3cc(-c4ccncc4)ccc32)c2ccccc21 (configuration not stated)
35 to 36 °C | C#CCN1CC[C@H](O[Si](C)(C)C(C)(C)C)C1=O
106 to 108 °C | CC(C)Oc1cc(CCCOc2nc(Cc3ccccc3)sc2CC(=O)O)n(Cc2ccc(Cl)cc2Cl)n1
185 to 186 °C | Cc1ccccc1C(=O)Nc1nc2ccccc2c(=O)n1C
